Assay results taken from the NIST ThermoML archive (doi:10.1016/j.jct.2008.01.008).

Test: xn = mol fraction of the nth substance listed
Conditions: 298.15 K, 101 kPa, Liquid; for viscosity: Capillary tube (Ostwald / Ubbelohde) method; for speed of sound: Sing-around technique in a fixed-path interferometer

COCC(C)OCC(C)OC (stereo not given) [2-methoxy-1-(2-methoxy-1-methylethoxy)propane] + CO
Conditions | mass density [kg/m3] | speed of sound [m/s] | viscosity [mPa·s]
x1 = 0.0146 | – | – | 0.567
x1 = 0.023 | 799.44 | 1116.2 | –
x1 = 0.0467 | – | – | 0.6092
x1 = 0.0705 | 820.052 | 1138.4 | –
x1 = 0.0738 | – | – | 0.644
x1 = 0.1106 | – | – | 0.6831
x1 = 0.1312 | 838.725 | 1158.2 | –
x1 = 0.1422 | – | – | 0.7112
x1 = 0.1632 | 846.233 | 1166.2 | –
x1 = 0.1646 | – | – | 0.7327
x1 = 0.1725 | – | – | 0.7378
x1 = 0.1988 | – | – | 0.7576
x1 = 0.2058 | – | – | 0.7648
x1 = 0.2094 | 855.089 | 1175.4 | –
x1 = 0.2514 | 861.6 | 1182 | –
x1 = 0.2621 | – | – | 0.8031
x1 = 0.3018 | 867.961 | 1188.1 | –
x1 = 0.3128 | – | – | 0.8321
x1 = 0.3583 | – | – | 0.8527
x1 = 0.3598 | 873.908 | 1193.9 | –
x1 = 0.4 | – | – | 0.871
x1 = 0.4036 | 877.603 | 1197.3 | –
x1 = 0.4549 | 881.296 | 1200.3 | 0.8941
x1 = 0.5022 | 884.189 | 1202.6 | –
x1 = 0.5123 | – | – | 0.9106
x1 = 0.5449 | 886.449 | 1204.3 | –
x1 = 0.5474 | – | – | 0.9206
x1 = 0.6169 | 889.615 | 1206.2 | –
x1 = 0.6261 | – | – | 0.9387
x1 = 0.6494 | 890.83 | 1206.8 | –
x1 = 0.6802 | – | – | 0.9504
x1 = 0.7083 | 892.78 | 1207.7 | –
x1 = 0.7319 | – | – | 0.9598
x1 = 0.7557 | – | – | 0.9634
x1 = 0.756 | 894.087 | 1207.9 | –
x1 = 0.7919 | – | – | 0.9682
x1 = 0.8114 | 895.425 | 1207.8 | –
x1 = 0.8537 | 896.298 | 1207.6 | –
x1 = 0.8565 | – | – | 0.9775
x1 = 0.9047 | 897.217 | 1207 | –
x1 = 0.9185 | – | – | 0.9855
x1 = 0.9327 | – | – | 0.9862
x1 = 0.9364 | 897.708 | 1206.2 | –
x1 = 0.9511 | 897.931 | 1206.2 | –
x1 = 0.9572 | – | – | 0.9881
x1 = 0.974 | – | – | 0.9898

COCC(C)OCC(C)OC (stereo not given) [2-methoxy-1-(2-methoxy-1-methylethoxy)propane] + CCCCCO
Conditions | mass density [kg/m3] | speed of sound [m/s] | viscosity [mPa·s]
x1 = 0.0005 | – | – | 3.49
x1 = 0.0143 | 813.241 | 1274.5 | –
x1 = 0.0225 | – | – | 3.246
x1 = 0.0441 | 817.684 | 1272 | –
x1 = 0.0499 | – | – | 2.986
x1 = 0.0656 | – | – | 2.851
x1 = 0.0946 | – | – | 2.627
x1 = 0.1045 | 826.045 | 1266.6 | –
x1 = 0.1367 | – | – | 2.357
x1 = 0.1523 | 832.101 | 1262.4 | –
x1 = 0.194 | – | – | 2.078
x1 = 0.2149 | 839.509 | 1257.2 | –
x1 = 0.2414 | – | – | 1.891
x1 = 0.2431 | 842.645 | 1255 | –
x1 = 0.2954 | – | – | 1.728
x1 = 0.2986 | 848.553 | 1250.7 | –
x1 = 0.3419 | 852.922 | 1247.5 | –
x1 = 0.3597 | – | – | 1.574
x1 = 0.374 | 856.019 | 1245 | –
x1 = 0.4018 | 858.624 | 1243.2 | –
x1 = 0.4152 | – | – | 1.464
x1 = 0.4303 | – | – | 1.436
x1 = 0.4549 | 863.364 | 1239.5 | –
x1 = 0.468 | – | – | 1.38
x1 = 0.4941 | – | – | 1.345
x1 = 0.5038 | 867.504 | 1236.6 | –
x1 = 0.5334 | 869.911 | 1234.7 | –
x1 = 0.5552 | – | – | 1.274
x1 = 0.591 | – | – | 1.23
x1 = 0.6034 | 875.242 | 1230.3 | –
x1 = 0.6553 | 878.913 | 1226.5 | –
x1 = 0.6625 | – | – | 1.169
x1 = 0.6968 | 881.667 | 1224 | –
x1 = 0.709 | – | – | 1.137
x1 = 0.7445 | – | – | 1.112
x1 = 0.7505 | 885.025 | 1221.2 | –
x1 = 0.796 | – | – | 1.079
x1 = 0.7962 | 887.727 | 1218.6 | –
x1 = 0.8509 | 890.774 | 1215.1 | –
x1 = 0.8555 | – | – | 1.054
x1 = 0.9071 | 893.759 | 1211 | –
x1 = 0.9258 | – | – | 1.02
x1 = 0.9476 | 895.868 | 1208.7 | –
x1 = 0.96 | 896.501 | 1207.8 | –
x1 = 0.9803 | – | – | 0.9997

COCC(C)OCC(C)OC (stereo not given) [2-methoxy-1-(2-methoxy-1-methylethoxy)propane] + CCCCCCCO
Conditions | mass density [kg/m3] | speed of sound [m/s] | viscosity [mPa·s]
x1 = 0.0148 | – | – | 5.604
x1 = 0.0292 | – | – | 5.348
x1 = 0.0609 | 825.134 | 1317.8 | –
x1 = 0.0718 | – | – | 4.664
x1 = 0.1164 | 830.66 | 1309.7 | –
x1 = 0.1196 | – | – | 4.033
x1 = 0.157 | 834.553 | 1303 | –
x1 = 0.1575 | – | – | 3.611
x1 = 0.1902 | – | – | 3.294
x1 = 0.2117 | 839.681 | 1295.5 | –
x1 = 0.2555 | – | – | 3.016
x1 = 0.259 | 843.957 | 1289.2 | –
x1 = 0.2613 | – | – | 2.766
x1 = 0.3119 | – | – | 2.468
x1 = 0.3132 | 848.706 | 1281.7 | –
x1 = 0.3539 | 852.157 | 1276.4 | –
x1 = 0.3616 | – | – | 2.235
x1 = 0.406 | 856.458 | 1270.5 | –
x1 = 0.4129 | – | – | 2.031
x1 = 0.4366 | – | – | 1.949
x1 = 0.4532 | – | – | 1.895
x1 = 0.4533 | 860.298 | 1264.9 | –
x1 = 0.5056 | 864.403 | 1258.8 | –
x1 = 0.511 | – | – | 1.736
x1 = 0.5326 | – | – | 1.673
x1 = 0.552 | 867.948 | 1253.6 | –
x1 = 0.5897 | – | – | 1.543
x1 = 0.5935 | 871.045 | 1249.2 | –
x1 = 0.6316 | 873.865 | 1245.4 | –
x1 = 0.6424 | – | – | 1.432
x1 = 0.7111 | – | – | 1.309
x1 = 0.7137 | 879.729 | 1236.2 | –
x1 = 0.7457 | – | – | 1.25
x1 = 0.7666 | 883.415 | 1231 | –
x1 = 0.7977 | – | – | 1.178
x1 = 0.8059 | 886.098 | 1226.6 | –
x1 = 0.8495 | 889.001 | 1222.1 | –
x1 = 0.8531 | – | – | 1.117
x1 = 0.8927 | – | – | 1.079
x1 = 0.9026 | 892.554 | 1216.1 | –
x1 = 0.9293 | 894.156 | 1213 | –
x1 = 0.9421 | – | – | 1.041
x1 = 0.9527 | 895.635 | 1210.7 | –
x1 = 0.9678 | – | – | 1.02
x1 = 0.9935 | – | – | 0.9994
